Data set [1] has as its system Salmonella typhimurium TA97. The data set can be described thus: Salmonella/microsome assay, TA97. The class given is cell-based. The settings on record: +S9, positive control (PC) 517 μM. From the text: (§1) DMSO was used as a negative control. […] All chemicals were from Sigma Co.
Data set [2] relates to Salmonella typhimurium TA98. The data set can be described thus: Salmonella/microsome assay, TA98. The class given is cell-based. The settings on record: +S9, positive control (PC) 517 μM.
From the text: as §1

The test system of data set [3] is Salmonella typhimurium TA100. Nature of the data set: Salmonella/microsome assay, TA100. As for the experimental part: (§2) Stationary growth cultures of histidine auxotrophic Salmonella typhimurium (2 × 10^9 cells/mL) TA97, TA98, TA100, TA102, and TA1535 strains were obtained at 37°C in lysogenic broth (LB, 10 g/L tryptone; 5 g/L yeast extract; 10 g/L NaCl) containing 8 μg/mL ampicillin and 2 μg/mL tetracycline (only for TA102). All strains used in the present work were from our laboratory collection. […] Then, the Ames test was performed according to Maron and Ames. DMSO was used as a negative control. […] All chemicals were from Sigma Co.

Data set [4] deals with Salmonella typhimurium TA1535. The data set can be described thus: Salmonella/microsome assay, TA1535. The procedure:
as §2

A further data set deals with T. cruzi. On the set-up: method as in PMID 20510218. The settings on record: treated only with PBN; cited from earlier work.
The test system of a further data set is Salmonella. The settings on record: cited from earlier work.
The mark [5] stands for this setting: TA100, −S9, positive control (PC) 769 μM.
The mark [6] stands for this setting: TA1535, −S9, positive control (PC) 154 μM.

With `Nc1ccc2cc3ccccc3cc2c1` [2-AA, 2-aminoanthracene], the “MI (mutagenicity index)” value came to 9.0 in data set [1], 16.0 in data set [2], 4.6 in data set [3] (Salmonella typhimurium) and 10.1 in data set [4] (Salmonella typhimurium). Further, the “Number of revertant colonies per plate, Mean ± SD” value is listed as 1488 ± 139^∗ in data set [1], 291 ± 36^∗ in data set [2], 1257 ± 107^∗ in data set [3] (Salmonella typhimurium) and 168 ± 18^∗ in data set [4] (Salmonella typhimurium).

With `[N-]=[N+]=[N-].[Na+]` [AS, sodium azide], the figures for the “MI (mutagenicity index)” value in data set [3] (setting [5]) and in data set [4] (setting [6]) were 3.2 and 47.3, respectively. Further, the “Number of revertant colonies per plate, Mean ± SD” value in data set [3] (setting [5]) is listed as 637 ± 52^∗; in data set [4] (setting [6]), 615 ± 83^∗.

Regarding `CC(C)(C)/[N+]([O-])=C/c1ccccc1` [PBN, alpha-phenyl-tert-butyl nitrone], in the data set with T. cruzi, the parasite persistence entry is “no decline in parasite persistence”.

Consider `O=C(Cn1ccnc1[N+](=O)[O-])NCc1ccccc1` [benznidazole], for which the “dose giving the maximum mutagenic rate” value in the data set with Salmonella is given as 100 micrograms per plate.

Values taken from PMC5339480, “Mutagenic and Cytotoxicity LQB 123 Profile: Safety and Tripanocidal Effect of a Phenyl-t-Butylnitrone Derivative” (BioMed Research International, 2017).
